Test results reported in publication PMC3666196, “Formulation and Particle Size Reduction Improve Bioavailability of Poorly Water-Soluble Compounds with Antimalarial Activity” (Malaria Research and Treatment, 2013).
Each block holds one compound with its values, some of them ahead of it.

What was measured:
[1] = Particle size measurement by laser scattering (Horiba LA-950) and stability of suspensions stored at 4°C; assay type: physicochemical
Description: The particle size was measured using a Horiba LA-950 particle size distribution analyzer (Kyoto, Japan), based on laser scattering. This particular instrument has a measurement period of less than 2 minutes from introduction of sample to data presentation with a sample requirement for testing of 2–5 mg per measurement in a 150 mL flow cell, depending on the sample type. All DQ and WR2996666 preparations were measured at a range of transmittance between 80–90%. Various volumes ranging from 100 μL to 800 μL of samples with about 5–10 mg solid from each vial were tested in this instrument to determine the mean particle size, which was the particle size parameter referred in the results. In order to see the change of particle size of various preparations over time, an accelerated stability study of prepared micro- and nanosuspensions were carried out at a temperature of 4°C for a period of up to 3 weeks. Accurately weighed amounts of samples were placed into glass vials with aluminum-lined caps and stored in a microprocessor-controlled humidity chamber, and the samples were then characterized as a function of exposed time. The stability of particles shown in Tables 1 and 2 was some of the preparations evaluated in this study. Generally, the particles in aqueous suspension dosed in our animals were stable for at least 3 weeks.

[2] = design: method as in PMID 11000543; settings: formulated into various solid dispersions; cited from earlier work
[3] = HPLC check of drug integrity after formulation and HPH; assay type: physicochemical; settings: any of the preparations including microparticles and nanoparticles
Description: The rehydrated DQ nanoparticle formulations were evaluated by particle size measurement, determination of drug concentration in the whole suspension as well as in the fine particles less than […], and PK study in drug dosed animals. The particle size was monitored throughout the preparation procedure and before and after animal studies. To ensure that there was no change of the drug integrity in any of the formulation procedure, drug concentrations and chromatography profiles of the drug molecule identity were examined by an Agilent HPLC (Agilent Technologies, Foster City, CA) with an isocratic mobile phase of 20% water and 80% acetonitrile (0.1% formic acid contained in water and acetonitrile, resp.). All drug preparations in aqueous system were diluted in methanol with vigorous vortex and then in acetonitrile for HPLC analysis. This was done to obtain complete extraction of the compound prior to loading the samples to HPLC. To evaluate the amount of DQ in the fine particles, formulation suspensions were prepared in the amount of 10 mg/mL of DQ in water, incubated at 37°C for 2 hours and passed through a […] size filter. […] In order to determine the actual dosage of the drug for animal studies, the concentration of the drug used for dosing animals was determined by HPLC without prior particle size fractionation with filtration.

[4] = design: method as in earlier work; settings: buffered water pH 4–9; cited from earlier work

Particle size ([1]; WR299666, HPH at 2500 bars in 6 homogenization cycles): 0.38–0.48 μm
Particle size ([1]; WR299666 in water or HECT suspension, method Grinder, stored at 4°C, Week 1): 42.54 μm
Particle size ([1]; WR299666 suspension, method Grinder, stored at 4°C, Mean of weeks 1-3): 42.22 μm
Particle size ([1]; WR299666 suspension, method Grinder, stored at 4°C, Week 2): 41.07 μm
Particle size ([1]; WR299666 suspension, method Grinder, stored at 4°C, Week 3): 43.05 μm
Particle size ([1]; WR299666 suspension, method HG, stored at 4°C, Mean of weeks 1-3): 61.88 μm
Particle size ([1]; WR299666 suspension, method HG, stored at 4°C, Week 1): 66.31 μm
Particle size ([1]; WR299666 suspension, method HG, stored at 4°C, Week 2): 71.85 μm
Particle size ([1]; WR299666 suspension, method HG, stored at 4°C, Week 3): 47.49 μm
Particle size ([1]; WR299666 suspension, method HPH, stored at 4°C, Mean of weeks 1-3): 0.406 μm
Particle size ([1]; WR299666 suspension, method HPH, stored at 4°C, Week 1): 0.376 μm
Particle size ([1]; WR299666 suspension, method HPH, stored at 4°C, Week 2): 0.397 μm
Particle size ([1]; WR299666 suspension, method HPH, stored at 4°C, Week 3): 0.445 μm
Particle size ([1]; WR299666 suspension, method US, stored at 4°C, Mean of weeks 1-3): 1.5 μm
Particle size ([1]; WR299666 suspension, method US, stored at 4°C, Mean of weeks 1-3, listed as W299666): 1.50 μm
Particle size ([1]; WR299666 suspension, method US, stored at 4°C, Week 1): 1.52 μm
Particle size ([1]; WR299666 suspension, method US, stored at 4°C, Week 2): 1.58 μm
Particle size ([1]; WR299666 suspension, method US, stored at 4°C, Week 3): 1.41 μm
Average particle size of starting raw material ([1]; without treatment): above 70 μm
SMILES: [H]/N=C(/N=C1NC(=O)C(=O)N1C)Nc1ccc(Cl)c(Cl)c1 [WR299666, (E)-1-(3,4-dichlorophenyl)-3-(1-methyl-4,5-dioxoimidazolidin-2-ylidene) guanidine]

SMILES: CCCCN(CCCC)CCC(O)c1cc2c(Cl)cc(Cl)cc2c2cc(C(F)(F)F)ccc12 (stereo not drawn) [halofantrine]
Increase in absolute bioavailability [2]: five- to seven

Particle size of generated nanoparticles ([1]; DQ formulation with poloxamer 407 as surfactant, after HPH): > 0.5 μm
Particle size ([1]; DQ in water or HECT suspension, method HG (homogenizer with generator), stored at 4°C, Week 1): 99.23 μm
Particle size ([1]; DQ suspension in HECT, method US (ultra-sonicator), stored at 4°C, Week 1): 36.62 μm
Particle size ([1]; DQ suspension, method HG, stored at 4°C, Mean of weeks 1-3): 102.04 μm
Particle size ([1]; DQ suspension, method HG, stored at 4°C, Week 2): 101.33 μm
Particle size ([1]; DQ suspension, method HG, stored at 4°C, Week 3): 105.56 μm
Particle size ([1]; DQ suspension, method US, stored at 4°C, Mean of weeks 1-3): 36.88 μm
Particle size ([1]; DQ suspension, method US, stored at 4°C, Week 2): 36.97 μm
Particle size ([1]; DQ suspension, method US, stored at 4°C, Week 3): 36.92 μm
Particle size ([1]; DQ, method SD (solid dispersion) plus HPH, in water, stored at 4°C, Week 1): 0.401 μm
Particle size ([1]; DQ, method SD plus HPH, stored at 4°C, Mean of weeks 1-3): 0.392 μm
Particle size ([1]; DQ, method SD plus HPH, stored at 4°C, Week 2): 0.384 μm
Particle size ([1]; DQ, method SD plus HPH, stored at 4°C, Week 3): 0.377 μm
Particle size of DQ formulations ([1]; solid dispersion with polymers and surfactants, sonication followed by HPH at 1500–2500 bars, 120 homogenization cycles): 0.2–0.4 μm
Chromatography profile (mass quantity, retention time) after formulation process and HPH [3]: no change in chromatography profile
SMILES: CCCCCCCCCCOc1cc2c(O)c(C(=O)OCC)cnc2cc1OCC [DQ, ethyl 6-decyloxy-7-ethoxy-4-hydroxy-3-quinolinecarboxylate, reference compound]
Solubility in water [4]: < 0.01 µg/mL
